For this assay, the system named is P388 leukemia ip, CD2F1 mice, survival T/C. The experiment in a line: NCI In Vivo Anticancer Drug Screen. Data for tumor model P388 Leukemia (intraperitoneal) in CD2F1 (CDF1) mice. Conditions: endpoint: median survival time, higher = longer survival. The method, boiled down:
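Mice carrying the transplanted tumor received test compound or vehicle. Survival was recorded in each group, and the value is the treated-group measurement divided by that of the vehicle-treated control group.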

The mark [1] stands for this setting: dose: 50.0 mg/kg/injection, schedule: Q01DX005 (ip), vehicle: saline with Tween-80.
Setting [2] is: dose: 100.0 mg/kg/injection, schedule: Q01DX005 (ip), vehicle: saline with Tween-80.
[3] abbreviates: dose: 200.0 mg/kg/injection, schedule: Q01DX005 (ip), vehicle: saline with Tween-80.
The mark [4] stands for this setting: dose: 50.0 mg/kg/injection, schedule: Q01DX005 (ip), vehicle: Klucel (hydroxypropylcellulose) (HPC).
[5] abbreviates: dose: 100.0 mg/kg/injection, schedule: Q01DX005 (ip), vehicle: Klucel (hydroxypropylcellulose) (HPC).
The mark [6] stands for this setting: dose: 200.0 mg/kg/injection, schedule: Q01DX005 (ip), vehicle: Klucel (hydroxypropylcellulose) (HPC).
Setting [7] is: dose: 25.0 mg/kg/injection, schedule: Q01DX009 (ip), vehicle: saline with Tween-80.
Setting [8] is: dose: 50.0 mg/kg/injection, schedule: Q01DX009 (ip), vehicle: Klucel (hydroxypropylcellulose) (HPC).
Setting [9] is: dose: 100.0 mg/kg/injection, schedule: Q01DX009 (ip), vehicle: Klucel (hydroxypropylcellulose) (HPC).

Where “and” joins values, the source holds several entries; their conditions need not be identical. Equal values may be shown once. Toxic doses and inconclusive results are not listed.

For `CCC1=C[C@H]2CN(CCc3c([nH]c4ccccc34)[C@@](C(=O)OC)(c3cc4c(cc3OC)N(C)[C@H]3[C@@](O)(C(=O)NC)[C@H](OC(C)=O)[C@]5(CC)C=CCN6CC[C@]43[C@@H]65)C2)C1`, the T/C (dose: 0.02 mg/kg/injection, schedule: Q01DX009 (ip), vehicle: water) is 102 % of control; the T/C (dose: 0.03 mg/kg/injection, schedule: Q01DX009 (ip), vehicle: water) was 100 % of control; the T/C (dose: 0.12 mg/kg/injection, schedule: Q04DX003 (ip), vehicle: water) was 151 % of control; the T/C (dose: 0.13 mg/kg/injection, schedule: Q01DX009 (ip), vehicle: water) is 114 % of control and 203 % of control; the T/C (dose: 0.25 mg/kg/injection, schedule: Q01DX001 (ip), vehicle: water) is 110 % of control; the T/C (dose: 0.25 mg/kg/injection, schedule: Q01DX009 (ip), vehicle: water) was 220 % of control and 192 % of control and 214 % of control. Further, the T/C runs as follows: (dose: 0.25 mg/kg/injection, schedule: Q04DX003 (ip), vehicle: water) 187 % of control; (dose: 0.5 mg/kg/injection, schedule: Q01DX001 (ip), vehicle: water) 119 % of control; (dose: 0.5 mg/kg/injection, schedule: Q04DX003 (ip), vehicle: water) 214 % of control; (dose: 1.0 mg/kg/injection, schedule: Q01DX009 (ip), vehicle: water) 87 % of control; (dose: 1.0 mg/kg/injection, schedule: Q04DX003 (ip), vehicle: water) 232 % of control; (dose: 2.0 mg/kg/injection, schedule: Q01DX001 (ip), vehicle: water) 150 % of control. For the same compound, the T/C is, setting by setting: (dose: 4.0 mg/kg/injection, schedule: Q01DX001 (ip), vehicle: water) 154 % of control; (dose: 8.0 mg/kg/injection, schedule: Q01DX001 (ip), vehicle: water) 180 % of control.

`CC(NNC(=S)NCc1ccccc1)c1cc2ccccc2cn1` (stereo not given): the T/C is 106 % of control and 113 % of control under setting [1]; 119 % of control under setting [2]; 160 % of control under setting [3].

For `S=c1[nH]nc(-c2n[nH]c3ccccc23)o1`, the T/C is, setting by setting: under setting [1], 100 % of control; under setting [2], 100 % of control; under setting [3], 97 % of control.

Regarding `CCN(CC)CCOC(=O)Cc1cccc2c(=O)cc(-c3cccs3)oc12`, the T/C by setting is: (dose: 25.0 mg/kg/injection, schedule: Q01DX005 (ip), vehicle: Klucel (hydroxypropylcellulose) (HPC)) 106 % of control; under setting [4], 104 % of control and 117 % of control; under setting [5], 109 % of control; under setting [6], 161 % of control.

Turning to `O=C(CSCC(=O)c1ccc([N+](=O)[O-])cc1)c1ccc([N+](=O)[O-])cc1`, the T/C is 94 % of control under setting [1], 96 % of control under setting [2] and 87 % of control under setting [3].

On to `C=C(CCCC)[Se]c1ccccc1`, for which the T/C under setting [7] is 103 % of control and 107 % of control; the T/C (dose: 50.0 mg/kg/injection, schedule: Q01DX009 (ip), vehicle: saline with Tween-80) is 107 % of control and 95 % of control; the T/C (dose: 100.0 mg/kg/injection, schedule: Q01DX009 (ip), vehicle: saline with Tween-80) was 101 % of control and 117 % of control.

Take `CC1OC(OC2C(Oc3cc(O)c4c(c3)O[C@H](c3ccc(O)cc3)CC4=O)OC(CO)C(O)C2O)C(O)C(O)C1O` (stereo not given in full): the T/C was 97 % of control under setting [4], 97 % of control under setting [5] and 101 % of control under setting [6].

Take `Oc1c(Cl)cc(Cl)cc1C1Nc2ccccc2-n2cccc21` (stereo not given): the T/C is 91 % of control (dose: 6.25 mg/kg/injection, schedule: Q01DX009 (ip), vehicle: saline with Tween-80); 96 % of control (dose: 12.5 mg/kg/injection, schedule: Q01DX009 (ip), vehicle: saline with Tween-80); 91 % of control under setting [7].

On to `Cc1ccc(C2NC(c3ccc(C)cc3)C3CCCC2C3O)cc1` (stereo not given), for which the T/C runs as follows: (dose: 100.0 mg/kg/injection, schedule: Q04DX003 (ip), vehicle: saline) 100 % of control; (dose: 200.0 mg/kg/injection, schedule: Q04DX003 (ip), vehicle: saline) 97 % of control; (dose: 400.0 mg/kg/injection, schedule: Q04DX003 (ip), vehicle: saline) 95 % of control.

For the compound `CCN(CC)CCNc1c2ccc(Cl)cc2nc2ccc(OC)nc12`, the T/C is, setting by setting: under setting [8], 114 % of control; under setting [9], 111 % of control; (dose: 200.0 mg/kg/injection, schedule: Q01DX009 (ip), vehicle: Klucel (hydroxypropylcellulose) (HPC)) 117 % of control.

As to `CCOC(=O)c1n[nH]nc1Nc1cncc(Nc2n[nH]nc2C(=O)OCC)n1`, the T/C is 102 % of control (dose: 60.0 mg/kg/injection, schedule: Q01DX005 (ip), vehicle: Klucel (hydroxypropylcellulose) (HPC)); 97 % of control (dose: 120.0 mg/kg/injection, schedule: Q01DX005 (ip), vehicle: Klucel (hydroxypropylcellulose) (HPC)); 97 % of control (dose: 240.0 mg/kg/injection, schedule: Q01DX005 (ip), vehicle: Klucel (hydroxypropylcellulose) (HPC)).

`CC(C)Sc1nc(NC(=O)N(CCCl)N=O)cc(=O)[nH]1`: where the note is “dose: 12.5 mg/kg/injection, schedule: Q01DX005 (ip), vehicle: Klucel (hydroxypropylcellulose) (HPC)”, the T/C was 152 % of control.

Turning to `Cc1ccc2[nH]c(=O)oc2c1`, the T/C is, setting by setting: (dose: 25.0 mg/kg/injection, schedule: Q04DX002 (ip), vehicle: saline with Tween-80) 90 % of control; (dose: 50.0 mg/kg/injection, schedule: Q04DX002 (ip), vehicle: saline with Tween-80) 101 % of control.

Turning to `[Cu+2].[NH-]C(CC(=O)O)C(=O)O.[NH-]C(CC(=O)O)C(=O)O` (stereo not given), the T/C was 98 % of control (dose: 7.5 mg/kg/injection, schedule: Q01DX005 (ip), vehicle: saline with Tween-80); 100 % of control (dose: 15.0 mg/kg/injection, schedule: Q01DX005 (ip), vehicle: saline with Tween-80); 111 % of control (dose: 30.0 mg/kg/injection, schedule: Q01DX005 (ip), vehicle: saline with Tween-80).

With `N#CNc1nc2ccccc2[nH]1`, the T/C reads like this: (dose: 6.25 mg/kg/injection, schedule: Q01DX009 (ip), vehicle: Klucel (hydroxypropylcellulose) (HPC)) 100 % of control; (dose: 12.5 mg/kg/injection, schedule: Q01DX009 (ip), vehicle: Klucel (hydroxypropylcellulose) (HPC)) 103 % of control; (dose: 25.0 mg/kg/injection, schedule: Q01DX009 (ip), vehicle: Klucel (hydroxypropylcellulose) (HPC)) 108 % of control; under setting [8], 101 % of control; under setting [9], 100 % of control.

Take `C=C1CCC2C(C)(C(=O)O)CCCC2(C)C1CCc1ccoc1` (stereo not given): the T/C was 102 % of control (dose: 12.75 mg/kg/injection, schedule: Q01DX005 (ip), vehicle: Klucel + Tween-80); 96 % of control (dose: 25.5 mg/kg/injection, schedule: Q01DX005 (ip), vehicle: Klucel + Tween-80); 110 % of control (dose: 51.0 mg/kg/injection, schedule: Q01DX005 (ip), vehicle: Klucel + Tween-80); 110 % of control (dose: 102.0 mg/kg/injection, schedule: Q01DX005 (ip), vehicle: Klucel + Tween-80).

For `O=C1OC(CO)C(O)C(O)C1O` (stereo not given), the T/C by setting is: (dose: 50.0 mg/kg/injection, schedule: Q01DX005 (ip), vehicle: saline) 100 % of control; (dose: 100.0 mg/kg/injection, schedule: Q01DX005 (ip), vehicle: saline) 93 % of control; (dose: 200.0 mg/kg/injection, schedule: Q01DX005 (ip), vehicle: saline) 96 % of control.

On to `Cn1ccccc1=NCC(N)=O`, for which the T/C is, setting by setting: (dose: 100.0 mg/kg/injection, schedule: Q04DX002 (ip), vehicle: saline) 99 % of control; (dose: 200.0 mg/kg/injection, schedule: Q04DX002 (ip), vehicle: saline) 104 % of control; (dose: 400.0 mg/kg/injection, schedule: Q04DX002 (ip), vehicle: saline) 102 % of control.

For `O=S1(=O)CC2(N3CCOCC3)CCCCCC21` (stereo not given), the T/C (dose: 100.0 mg/kg/injection, schedule: Q04DX003 (ip), vehicle: saline with Tween-80) is 103 % of control; the T/C (dose: 200.0 mg/kg/injection, schedule: Q04DX003 (ip), vehicle: saline with Tween-80) was 100 % of control; the T/C (dose: 400.0 mg/kg/injection, schedule: Q04DX003 (ip), vehicle: saline with Tween-80) is 100 % of control.

As to `COc1cccc(C(=O)Nc2ccccc2-c2ccccc2)c1OC`, the T/C reads like this: under setting [1], 97 % of control; under setting [2], 95 % of control; under setting [3], 87 % of control.

Take `CCCCCCCN(CCCCCCC)CC(O)c1cc2ccccc2c2cc(Br)ccc12` (stereo not given): the T/C runs as follows: under setting [1], 109 % of control; under setting [2], 104 % of control; under setting [3], 99 % of control.

Source of the values: PubChem BioAssay AID330 (DTP/NCI, 2004).
